{"source": "patent US12391737B2", "about": "“Soluble NPY2 receptor agonists” (Boehringer Ingelheim International GmbH, priority 2020, dated 2025)", "key": {"[1]": {"assay": "Solubility determination", "settings": "for Sol6: pH 6; for Sol7: pH 7", "procedure,_shortened": "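Shake-flask style: 10 mg/ml peptide (TFA salt), 0.1 M sodium diphosphate pH 6.4/7.0, 600 rpm, 2 h, RT; filter; dilute 1 mg/ml in 50% MeCN; RP-UPLC, 0–100% B over 2 min, 50 °C. Solubility = sample/control area ratio. Final pH recorded.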"}, "[2]": {"molecular_target": "T1, Human Neuropeptide Y2 Receptor (Homo sapiens, UniProt P49146)", "T1 construct": "purchased CHEMICON HTS066M", "T1 sequence (P49146 1-381)": "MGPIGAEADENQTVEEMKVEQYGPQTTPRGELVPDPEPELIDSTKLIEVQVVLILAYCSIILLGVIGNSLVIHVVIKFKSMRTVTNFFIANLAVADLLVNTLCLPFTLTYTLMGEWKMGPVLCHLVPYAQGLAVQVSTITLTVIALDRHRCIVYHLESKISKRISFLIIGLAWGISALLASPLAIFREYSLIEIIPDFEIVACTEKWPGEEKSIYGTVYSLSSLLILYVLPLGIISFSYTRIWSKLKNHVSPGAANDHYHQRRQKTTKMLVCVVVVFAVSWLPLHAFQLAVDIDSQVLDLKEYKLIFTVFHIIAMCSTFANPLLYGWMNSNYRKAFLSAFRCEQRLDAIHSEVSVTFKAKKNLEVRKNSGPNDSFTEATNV", "assay": "Radioligand binding competition assay (RLB)", "settings": "Table 3, 125I-PYY(1-36) competition; read-out: Ki", "procedure,_shortened": "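Peptides were serially diluted from 1 mM DMSO stocks and competed for radioligand binding to receptor membranes (0.5 μg/well) over 2 h at room temperature, pH 7.4 HEPES buffer. Bound radioactivity on filters was counted by scintillation, and IC50 was derived by nonlinear regression.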"}}, "note": "*1 amine or outer side, *2 acyl side, *3 side chain or, on linkers, in order; H or OH if unused. Where a SMILES comes first, the peptide text is derived from it. Side-chain parts run from the residue outwards. The star is where a group is joined. C18 diacid = O=C(O)CCCCCCCCCCCCCCCCC(=O)*; γGlu = O=C(O)[C@H](CCC(=O)[*:2])N[*:1]; Isovaleryl = CC(C)CC(=O)*; Ahx = NCCCCCC(=O)O"}
{"smiles": "CC[C@H](C)[C@H](NC(=O)[C@H](CCC(=O)O)NC(=O)[C@H](CCC(=O)O)NC(=O)[C@@H]1CCCN1C(=O)[C@H](CCC(=O)O)NC(=O)[C@H](C)NC(=O)[C@H](C)NC(=O)[C@H](C)NC(=O)[C@H](CCC(=O)O)NC(=O)[C@@H]1CCCN1C(=O)[C@H](CCCCNC(=O)CCCCCNC(=O)CC[C@H](NC(=O)CCCCCCCCCCCCCCCCC(=O)O)C(=O)O)NC(=O)[C@H](CCC(=O)O)NC(=O)[C@@H]1CCCN1C(=O)[C@H](C)NC(=O)CC(C)C)C(=O)N[C@@H](CCC(N)=O)C(=O)N[C@@H](CCCNC(=N)N)C(=O)N[C@@H](Cc1ccc(O)cc1)C(=O)N[C@@H](Cc1ccc(O)cc1)C(=O)N[C@H](C(=O)N[C@@H](C)C(=O)N[C@@H](CC(C)C)C(=O)N[C@@H](CCCNC(=N)N)C(=O)N[C@@H](Cc1c[nH]cn1)C(=O)N[C@@H](Cc1ccc(O)cc1)C(=O)N[C@@H](Cc1ccc(O)cc1)C(=O)N[C@@H](CC(N)=O)C(=O)N[C@@H](Cc1c[nH]c2ccccc12)C(=O)N[C@@H](CC(C)C)C(=O)N[C@H](C(=O)N[C@@H](CCCNC(=N)N)C(=O)N[C@@H](CCC(N)=O)C(=O)N[C@@H](CCCNC(=N)N)C(=O)N[C@@H](Cc1ccc(O)cc1)C(N)=O)[C@@H](C)O)C(C)C", "note": "[Compound 135, N{alpha-4}-(3-methylbutanoyl)-N{epsilon-7}-(6-[(4S)-4-carboxy-4-(17-carboxyheptadecanamido)butanamido]hexanoyl)-[4A,7K,9E,10A,11A,13E,17I,18Q,22V,23A,28Y,30W,31L]-hPYY(4-36)] (Isovaleryl-APEK([Ahx-γGlu-C18 diacid])PEAAAEPEEIQRYYVALRHYYNWLTRQRY-NH2)", "values": [{"measurement": "Sol6", "setting": "[1]", "result": 0.2, "unit": "mg/mL"}, {"measurement": "Sol7", "setting": "[1]", "result": ">10.0", "unit": "mg/mL"}, {"measurement": "Ki", "setting": "[2]", "result": 3.83, "unit": "nM"}]}
{"smiles": "CC(C)CC(=O)N[C@@H](C)C(=O)N1CCC[C@H]1C(=O)N[C@@H](CCC(=O)O)C(=O)N[C@@H](CCCCNC(=O)CCCCCNC(=O)CC[C@H](NC(=O)CCCCCCCCCCCCCCCCC(=O)O)C(=O)O)C(=O)N1CCC[C@H]1C(=O)N[C@@H](CCC(=O)O)C(=O)N[C@@H](CCC(=O)O)C(=O)N[C@@H](CC(=O)O)C(=O)N[C@@H](C)C(=O)N[C@H](C(=O)N1CCC[C@H]1C(=O)N[C@@H](CCC(=O)O)C(=O)N[C@@H](CCC(=O)O)C(=O)N[C@@H](CC(C)C)C(=O)N[C@@H](CCC(N)=O)C(=O)N[C@@H](CCCNC(=N)N)C(=O)N[C@@H](Cc1ccc(O)cc1)C(=O)N[C@@H](Cc1ccc(O)cc1)C(=O)N[C@H](C(=O)N[C@@H](CO)C(=O)N[C@@H](CC(C)C)C(=O)N[C@@H](CCCNC(=N)N)C(=O)N[C@@H](Cc1c[nH]cn1)C(=O)N[C@@H](Cc1ccc(O)cc1)C(=O)N[C@@H](Cc1ccc(O)cc1)C(=O)N[C@@H](CC(N)=O)C(=O)N[C@@H](Cc1c[nH]c2ccccc12)C(=O)N[C@@H](CC(C)C)C(=O)N[C@@H](CC(C)C)C(=O)N[C@@H](CCCNC(=N)N)C(=O)N[C@@H](CCC(N)=O)C(=O)N[C@@H](CCCNC(=N)N)C(=O)N[C@@H](Cc1ccc(O)cc1)C(N)=O)C(C)C)[C@@H](C)O", "note": "[Compound 137, N{alpha-4}-(3-methylbutanoyl)-N{epsilon-7}-(6-[(4S)-4-carboxy-4-(17-carboxyheptadecanamido)butanamido]hexanoyl)-[4A,7K,9E,13T,18Q,22V,28Y,30W,31L,32L]-hPYY(4-36)]", "values": [{"measurement": "Sol6", "setting": "[1]", "result": ">10.0", "unit": "mg/mL"}, {"measurement": "Sol7", "setting": "[1]", "result": ">10.0", "unit": "mg/mL"}, {"measurement": "Ki", "setting": "[2]", "result": 49.6, "unit": "nM"}]}
{"smiles": "CC(C)CC(=O)N[C@@H](C)C(=O)N1CCC[C@H]1C(=O)N[C@@H](CCC(=O)O)C(=O)N[C@@H](CCCCNC(=O)CCCCCNC(=O)CC[C@H](NC(=O)CCCCCCCCCCCCCCCCC(=O)O)C(=O)O)C(=O)N1CCC[C@H]1C(=O)N[C@@H](CCC(=O)O)C(=O)N[C@@H](CCC(=O)O)C(=O)N[C@@H](CC(=O)O)C(=O)N[C@@H](C)C(=O)N[C@@H](CCC(=O)O)C(=O)N1CCC[C@H]1C(=O)N[C@@H](CCC(=O)O)C(=O)N[C@@H](CCC(=O)O)C(=O)N[C@@H](CC(C)C)C(=O)N[C@@H](CCC(N)=O)C(=O)N[C@@H](CCC(=O)O)C(=O)N[C@@H](Cc1ccc(O)cc1)C(=O)N[C@@H](Cc1ccc(O)cc1)C(=O)N[C@H](C(=O)N[C@@H](CO)C(=O)N[C@@H](CC(C)C)C(=O)N[C@@H](CCCNC(=N)N)C(=O)N[C@@H](Cc1c[nH]cn1)C(=O)N[C@@H](Cc1ccc(O)cc1)C(=O)N[C@@H](Cc1ccc(O)cc1)C(=O)N[C@@H](CC(N)=O)C(=O)N[C@@H](Cc1c[nH]c2ccccc12)C(=O)N[C@@H](CC(C)C)C(=O)N[C@H](C(=O)N[C@@H](CCCNC(=N)N)C(=O)N[C@@H](CCC(N)=O)C(=O)N[C@@H](CCCNC(=N)N)C(=O)N[C@@H](Cc1ccc(O)cc1)C(N)=O)[C@@H](C)O)C(C)C", "note": "[Compound 138, N{alpha-4}-(3-methylbutanoyl)-N{epsilon-7}-(6-[(4S)-4-carboxy-4-(17-carboxyheptadecanamido)butanamido]hexanoyl)-[4A,7K,9E,13E,18Q,19E,22V,28Y,30W,31L]-hPYY(4-36)]", "values": [{"measurement": "Sol6", "setting": "[1]", "result": 9.9, "unit": "mg/mL"}, {"measurement": "Sol7", "setting": "[1]", "result": 9.5, "unit": "mg/mL"}, {"measurement": "Ki", "setting": "[2]", "result": 12.5, "unit": "nM"}]}
{"smiles": "CC(C)CC(=O)N[C@@H](C)C(=O)N1CCC[C@H]1C(=O)N[C@@H](CCC(=O)O)C(=O)N[C@@H](CCCCNC(=O)CCCCCNC(=O)CC[C@H](NC(=O)CCCCCCCCCCCCCCCCC(=O)O)C(=O)O)C(=O)N1CCC[C@H]1C(=O)N[C@@H](CCC(=O)O)C(=O)N[C@@H](CCC(=O)O)C(=O)N[C@@H](CCC(=O)O)C(=O)N[C@@H](C)C(=O)N[C@@H](CO)C(=O)N1CCC[C@H]1C(=O)N[C@@H](C)C(=O)N[C@@H](CCC(=O)O)C(=O)N[C@@H](CC(C)C)C(=O)N[C@@H](CCC(N)=O)C(=O)N[C@@H](CCCNC(=N)N)C(=O)N[C@@H](Cc1ccc(O)cc1)C(=O)N[C@@H](Cc1ccc(O)cc1)C(=O)N[C@H](C(=O)N[C@@H](CO)C(=O)N[C@@H](CC(C)C)C(=O)N[C@@H](CCCNC(=N)N)C(=O)N[C@@H](Cc1c[nH]cn1)C(=O)N[C@@H](Cc1ccc(O)cc1)C(=O)N[C@@H](Cc1ccc(O)cc1)C(=O)N[C@@H](CC(N)=O)C(=O)N[C@@H](Cc1c[nH]c2ccccc12)C(=O)N[C@@H](CC(C)C)C(=O)N[C@H](C(=O)N[C@@H](CCCNC(=N)N)C(=O)N[C@@H](CCC(N)=O)C(=O)N[C@@H](CCCNC(=N)N)C(=O)N[C@@H](Cc1ccc(O)cc1)C(N)=O)[C@@H](C)O)C(C)C", "note": "[Compound 139, N{alpha-4}-(3-methylbutanoyl)-N{epsilon-7}-(6-[(4S)-4-carboxy-4-(17-carboxyheptadecanamido)butanamido]hexanoyl)-[4A,7K,9E,11E,15A,18Q,22V,28Y,30W,31L]-hPYY(4-36)] (Isovaleryl-APEK([Ahx-γGlu-C18 diacid])PEEEASPAELQRYYVSLRHYYNWLTRQRY-NH2)", "values": [{"measurement": "Sol6", "setting": "[1]", "result": 7.3, "unit": "mg/mL"}, {"measurement": "Sol7", "setting": "[1]", "result": 8.8, "unit": "mg/mL"}, {"measurement": "Ki", "setting": "[2]", "result": 3.6, "unit": "nM"}]}
{"smiles": "CC(C)CC(=O)N[C@@H](C)C(=O)N1CCC[C@H]1C(=O)N[C@@H](CCC(=O)O)C(=O)N[C@@H](CCCCNC(=O)CCCCCNC(=O)CC[C@H](NC(=O)CCCCCCCCCCCCCCCCC(=O)O)C(=O)O)C(=O)N1CCC[C@H]1C(=O)N[C@@H](CCC(=O)O)C(=O)N[C@@H](CCC(=O)O)C(=O)N[C@@H](CC(=O)O)C(=O)N[C@@H](C)C(=O)N[C@H](C(=O)N1CCC[C@H]1C(=O)N[C@@H](CCC(=O)O)C(=O)N[C@@H](CCC(=O)O)C(=O)N[C@@H](CC(C)C)C(=O)N[C@@H](CCC(N)=O)C(=O)N[C@@H](CO)C(=O)N[C@@H](Cc1ccc(O)cc1)C(=O)N[C@@H](Cc1ccc(O)cc1)C(=O)N[C@H](C(=O)N[C@@H](CO)C(=O)N[C@@H](CC(C)C)C(=O)N[C@@H](CCCNC(=N)N)C(=O)N[C@@H](Cc1c[nH]cn1)C(=O)N[C@@H](Cc1ccc(O)cc1)C(=O)N[C@@H](Cc1ccc(O)cc1)C(=O)N[C@@H](CC(N)=O)C(=O)N[C@@H](Cc1c[nH]c2ccccc12)C(=O)N[C@@H](CC(C)C)C(=O)N[C@H](C(=O)N[C@@H](CCCNC(=N)N)C(=O)N[C@@H](CCC(N)=O)C(=O)N[C@@H](CCCNC(=N)N)C(=O)N[C@@H](Cc1ccc(O)cc1)C(N)=O)[C@@H](C)O)C(C)C)[C@@H](C)O", "note": "[Compound 141, N{alpha-4}-(3-methylbutanoyl)-N{epsilon-7}-(6-[(4S)-4-carboxy-4-(17-carboxyheptadecanamido)butanamido]hexanoyl)-[4A,7K,9E,13T,18Q,19S,22V,28Y,30W,31L]-hPYY(4-36)]", "values": [{"measurement": "Sol6", "setting": "[1]", "result": 9.6, "unit": "mg/mL"}, {"measurement": "Sol7", "setting": "[1]", "result": 9.7, "unit": "mg/mL"}, {"measurement": "Ki", "setting": "[2]", "result": 8.17, "unit": "nM"}]}
